Experimental data from patent US8980586B2, “Compound and method for producing same” (The Ritsumeikan Trust, priority 2011, dated 2015).
In brackets after ≈: the same amount, converted by molar mass.

Columns and labels:
[1] = Solubility (physicochemical properties); conditions: for Solubility in methanol, dimethyl sulfoxide (DMSO), and chloroform: organic solvents
Saprolegnia parasitica = experiment: Antimicrobial activity against eukaryotic microorganisms, 96-well microplate (MIC); format: cell-based; conditions: GY medium, 18° C., 24 hours
Description: (§1) The activity against eukaryotic microorganisms was measured with a 96-well microplate in the following manner. Compound (I-1), (I0-B), (I0-C), (I0-D), or (I-2) was suspended in 8% methanol water to prepare a sample suspension having a concentration of 4000, 2000, 1000, 500, 250, 125, 62.5, 32, 16, 8, or 4 μg/mL. Pyceze was diluted with water to prepare Pyceze aqueous solutions having the above concentrations. 50 μl of each of the sample solutions having the above concentrations, 50 μl of sterilized 4-fold concentrated liquid medium, and 100 μl of spore suspension or bacterial suspension of the test organisms prepared beforehand were poured in each well of the 96-well microplate. The experiments were performed in duplicate. […] The test organisms and the culture conditions were as follows.
Saprolegnia parasitica: GY medium (glucose: 1%, yeast extract: 0.25%, pH: 6.5), 18° C., 24 hours;

Phoma sp. = experiment: as above; format: cell-based; conditions: YPD medium, 30° C., 30 hours
Description: as §1
Phoma sp.: YPD medium (yeast extract: 1%, peptone: 2%, glucose: 2%, pH: 6.5), 30° C., 30 hours; and […]

Bacillus subtilis = experiment: Activity against prokaryotic microorganisms, paper disc method on agar plate; format: cell-based; conditions: LB agar, 37° C. overnight, concentration of sample solution
Description: (§2) The activity against prokaryotic microorganisms was measured by the paper disc method on an agar plate medium into which test organisms were kneaded. Staphylococcus aureus, Bacillus subtilis, or Escherichia coli was inoculated in 3 mL of sterilized LB medium (glucose: 0.5%, polypeptone: 1%, yeast extract: 0.5%, NaCl: 0.5%, pH: 7.2) in a test tube, and cultured at 37° C. overnight. The pre-culture solution (1%) was inoculated in a sterilized LB agar medium (agar: 1.5%) to prepare an agar assay plate. Compound (I-1) or (I-2) was dissolved in methanol to prepare a sample solution having a concentration of 1000, 500, 250, 125, 62.5, 32, 16, 8, 4, 2, or 1 μg/mL. The sample solution was infiltrated into a paper disc (ADVANTEC, diameter: 8 mm, thick), followed by air-drying. The paper disc was placed on the agar assay plate, and cultured at 37° C. overnight.

Escherichia coli = experiment: as above; format: cell-based; conditions: LB agar, 37° C. overnight
Description: as §2

Staphylococcus aureus = experiment: as above; format: cell-based; conditions: LB agar, 37° C. overnight, concentration of sample solution
Description: as §2

[2] = system: water flea (Daphnia pulex); experiment: Water flea swimming ability inhibitory activity test; format: in vivo; conditions: 24 hours incubation, 20° C.; probit method
Description: The number of water fleas was adjusted so that each 10 mL of aerated water contained 5 fleas. The water fleas were all 24 hours old after birth or younger. The aerated water was prepared by aerating tap water, which had been filtered by a water cleaner, for at least 24 hours. A sample solution obtained by dissolving Compound (I-1) or (I-2) in methanol, or a Pyceze aqueous solution obtained by diluting Pyceze with water, was added to the water flea breeding water under stirring so that the final concentration of the sample or Pyceze became 100, 10, 1, 0.1, or 0.01 μg/mL. After incubation for 24 hours (20° C., 17 μmol photons/m^2/s, Light:Dark=16:8), the number of water fleas swimming in the breeding water was counted. The water fleas were divided into multiple groups, each consisting of 5 fleas. Using 2 groups each, an experiment was performed with the test liquids having the aforementioned different final concentrations. From the obtained results, IC50 values were calculated according to the probit method using SPSS statistical software.

edible oysters = conditions: cited from earlier work
water fleas = conditions: cited from earlier work
green algae = conditions: cited from earlier work

Compound | Solubility in methanol, dimethyl sulfoxide (DMSO), and chloroform [1] | Solubility in water [1] | minimum inhibitory concentration (MIC) with respect to Saprolegnia parasitica (Saprolegnia parasitica) [µg/mL] | MIC with respect to Phoma sp. (Phoma sp.) [µg/mL] | minimum inhibitory concentration with respect to Bacillus subtilis (Bacillus subtilis) [µg/mL] | inhibition ring formation for Escherichia coli (Escherichia coli) | minimum inhibitory concentration with respect to Staphylococcus aureus (Staphylococcus aureus) [µg/mL] | 50% swimming ability inhibitory concentration with respect to water flea (Daphnia pulex) [2] [µg/mL] | EC50 (toxicity) in edible oysters (edible oysters) [µg/mL] | EC50 (toxicity) in water fleas (water fleas) [µg/mL] | EC50 (toxicity) in green algae (green algae) [µg/mL]
CC1OC(OC2C(O)CC(c3ccc4c(c3O)C(=O)C3=C(C4=O)C4(O)C(=O)CC(C)(OC5C=CC(=O)C(C)O5)CC4(O)C=C3)OC2C)C=CC1=O (centres unmarked) [Compound I0-A] | Soluble | Slightly soluble | – | – | – | – | – | – | – | – | –
CC1OC(OC2CCC(OC3C(O)CC(c4ccc5c(c4O)C(=O)C4=C(C5=O)C5(O)C(=O)CC(C)(OC6CCC(=O)C(C)O6)CC5(O)C=C4)OC3C)OC2C)C=CC1=O (centres unmarked) [Compound I0-D] | Soluble | Slightly soluble | 1 | 500 | 62.5 | an inhibition ring was not observed | 62.5 | – | – | – | –
CC1OC(OC2CCC(OC3C(O)CC(c4ccc5c(c4O)C(=O)C4=C(C5=O)C5(O)C(=O)CC(C)(OC6C=CC(=O)C(C)O6)CC5(O)C=C4)OC3C)OC2C)C=CC1=O (centres unmarked) [Compound I0-E] | Soluble | Slightly soluble | – | – | – | – | – | – | – | – | –
CC1OC(OC2C(O)CC(c3ccc4c(c3O)C(=O)C3=C(C4=O)C4(O)C(=O)CC(C)(OC5C=CC(=O)C(C)O5)CC4(O)C=C3)OC2C)C=CC1=O (centres unmarked) [Compound I-1] | – | – | 0.0039 | 500 | 62.5 | an inhibition ring was not observed | 31.2 | 2.58 | – | – | –
CC1OC(OC2CCC(OC3C(O)CC(c4ccc5c(c4O)C(=O)C4=C(C5=O)C5(O)C(=O)CC(C)(OC6C=CC(=O)C(C)O6)CC5(O)C=C4)OC3C)OC2C)C=CC1=O (centres unmarked) [Compound I-2] | – | – | 0.0078 | 500 | 8.0 | an inhibition ring was not observed | 16.0 | 4.48 | – | – | –
O=[N+]([O-])C(Br)(CO)CO [bronopol] | – | – | – | – | – | – | – | – | 0.77 (≈ 3.85 µM) | 1.4 (≈ 7 µM) | 0.0537 (≈ 0.269 µM)
